According to US4322346A, “5H-2,3-Benzodiazepine derivatives” (priority 1978, dated 1982):
“Also recorded” adds a separate entry of the source.

What was measured:
Format in all cases: in vivo
mice [1] = test: General behaviour of mice; details: 100 mg/kg i.p. and, resp., 200 mg/kg p.o., SMA = spontaneous motor activity
Experimental: These compounds decrease the spontaneous motor activity and potentiate the effect of narcotics.
(§1) The tests were performed on mice. In the examination of the general behaviour the animals were treated intraperitoneally with 100 mg/kg or orally with 200 mg/kg of the compound in question. The fighting behaviour test was performed according to the method of Tedeschi et al. (J. Pharm. Exp. Ther. 25, 28 /1959/). The observations concerning the general behaviour of the animals and the ED50 values obtained in the fighting behaviour test are summarized in Table 1. In these tests 1-(3,4-dimethoxyphenyl)-4-methyl-5-ethyl-7,8-dimethoxy-5H-2,3-benzodiazepine (Grandaxin) was applied as reference substance.

mice [2] = test: Fighting behaviour test on mice (method of Tedeschi et al.); details: for ED50: Mus musculus, po, mice; for "Fighting behaviour" test on mice, relative activity: relative to Grandaxin (1.0), from ED50 p.o.
Experimental: as §1

mice [3] = test: Narcosis potentiating activity on mice (sodium hexobarbital narcosis); details: for Narcosis potentiating activity on mice, Relative activity: relative to Grandaxin (1.0); for change in vivo at 50 mg/kg / change in vivo at 25 mg/kg / change in vivo at 12.5 mg/kg / change in vivo at 100 mg/kg: Mus musculus, po, 30 minutes before 50 mg/kg sodium hexobarbital i.v., prolongation vs control, read-out: Narcosis potentiating activity on mice, Increase, %
Experimental: When studying the narcosis potentiating effect, the benzodiazepine compounds were administered to mice in oral dosages of 12.5, 25, 50 or 100 mg/kg, and 30 minutes later 50 mg/kg of sodium hexobarbital were injected intravenously into the animals. The percentage prolongation of the narcosis period, compared to the value observed in the control group treated with sodium hexobarbital alone, was calculated. In these tests Grandaxin was applied again as reference substance.

SMILES	General behaviour (mice [1])	ED50 (mice [2])	"Fighting behaviour" test on mice, relative activity (mice [2])	Narcosis potentiating activity on mice, Relative activity (mice [3]; 50 mg/kg p.o.)	change in vivo at 50 mg/kg (mice [3]; 50 mg/kg p.o.)	Narcosis potentiating activity on mice, Relative activity (mice [3]; 25 mg/kg p.o.)	change in vivo at 25 mg/kg (mice [3]; 25 mg/kg p.o.)	Narcosis potentiating activity on mice, Relative activity (mice [3]; 12.5 mg/kg p.o.)	change in vivo at 12.5 mg/kg (mice [3]; 12.5 mg/kg p.o.)	Narcosis potentiating activity on mice, Relative activity (mice [3]; 100 mg/kg p.o.)	change in vivo at 100 mg/kg (mice [3]; 100 mg/kg p.o.)
CCC1C(C)=NN=C(c2ccc(OC)cc2)c2cc(OC)c(OC)cc21 (centres unmarked) [Example 4, 1-(4-methoxyphenyl)-4-methyl-5-ethyl-7,8-dimethoxy-5H-2,3-benzodiazepine]	Decrease of SMA	40 mg/kg	1.6	2.17	248%	–	–	–	–	–	–
CCC1C(C)=NN=C(c2ccccc2C)c2cc(OC)c(OC)cc21 (centres unmarked) [Example 7, 1-(2-tolyl)-4-methyl-5-ethyl-7,8-dimethoxy-5H-2,3-benzodiazepine]	–	–	–	–	–	3.71	301%	–	–	–	–
CCCC1C(C)=NN=C(c2ccc(OC)c(OC)c2)c2cc(OC)c(OC)cc21.O (centres unmarked) [Example 10, 1-(3,4-dimethoxyphenyl)-4-methyl-5-n-propyl-7,8-dimethoxy-5H-2,3-benzodiazepine hydrate]	–	–	–	1.62	185%	1.23	100%	–	–	–	–
CCC1=NN=C(c2ccc(OC)c(OC)c2)c2cc(OC)c(OC)cc2C1CC (centres unmarked) [Example 11, 1-(3,4-dimethoxyphenyl)-4,5-diethyl-7,8-dimethoxy-5H-2,3-benzodiazepine]	–	–	–	1.43	163%	1.65	134%	–	–	–	–
CCC1C(C)=NN=C(c2ccccc2F)c2cc(OC)c(OC)cc21 (centres unmarked) [Example 14, 1-(2-fluorophenyl)-4-methyl-5-ethyl-7,8 dimethoxy-5H-2,3-benzodiazepine]	–	–	–	6.57	750%	3.16	256%	8.65	147%	–	–
CCC1C(C)=NN=C(c2ccccc2Cl)c2cc(OC)c(OC)cc21 (centres unmarked) [Example 18, 1-(2-chlorophenyl)-4-methyl-5-ethyl-7,8-dimethoxy-5H-2,3-benzodiazepine]	Strong decrease of SMA	40 mg/kg	1.6	13.33	–	4.65	377%	9.41	160%	–	–
CCC1C(C)=NN=C(c2ccccc2)c2cc(OC)c(OC)cc21 (centres unmarked) [Example 22, 1-phenyl-4-methyl-5-ethyl-7,8-dimethoxy-5H-2,3-benzodiazepine]	Decrease of SMA; also recorded: catalepsy	35 mg/kg	1.8	3.20	364%	2.23	181%	–	–	–	–
CCC1C(C)=NN=C(c2ccc(O)c(OC)c2)c2cc(OC)c(OC)cc21 (centres unmarked) [Example 24, 1-(3-methoxy-4-hydroxyphenyl)-4-methyl-5-ethyl-7,8-dimethoxy-5H-2,3-benzodiazepine]	–	–	–	1.16	132%	–	–	–	–	–	–
CCC1C(C)=NN=C(c2ccc(OC)c(OC)c2)c2cc(OC)c(OC(C)C)cc21 (centres unmarked) [Example 33, 1-(3,4-dimethoxyphenyl)-4-methyl-5-ethyl-7-isopropoxy-8-methoxy-5H-2,3-benzodiazepine]	–	–	–	3.90	445%	3.01	244%	–	–	–	–
CCC(C)Oc1cc2c(cc1OC)C(c1ccc(OC)c(OC)c1)=NN=C(C)C2CC (centres unmarked) [Example 35, 1-(3,4-dimethoxyphenyl)-4-methyl-5-ethyl-7-sec.butoxy-8-methoxy-5H-2,3-benzodiazepine]	Decrease of SMA	60 mg/kg	1.1	1.52	173%	1.11	90%	–	–	3.26	780%
CCOc1cc2c(cc1OC)C(c1ccc(OC)c(OC)c1)=NN=C(C)C2CC (centres unmarked) [Example 36, 1-(3,4-dimethoxyphenyl)-4-methyl-5-ethyl-7-ethoxy-8-methoxy-5H-2,3-benzodiazepine]	–	–	–	2.44	278%	1.62	132%	–	–	–	–
CCCOc1cc2c(cc1OC)C(c1ccc(OC)c(OC)c1)=NN=C(C)C2CC (centres unmarked) [Example 37, 1-(3,4-dimethoxyphenyl)-4-methyl-5-ethyl-7-n-propoxy-8-methoxy-5H-2,3-benzodiazepine]	Strong decrease of SMA	40 mg/kg	1.6	–	–	–	–	–	–	–	–
COc1cc2c(cc1OC)C(c1cccc(Cl)c1)=NN=C(C)C2 [Example 39, 1-(3-Chlorophenyl)-4-methyl-7,8-dimethoxy-5H-2,3-benzodiazepine]	Strong decrease of SMA	16 mg/kg	4.0	–	–	4.25	344%	7.94	135%	–	–
COc1cc2c(cc1OC)C(C)C(C)=NN=C2c1cccc(Cl)c1 (centres unmarked) [Example 40, 1-(3-Chlorophenyl)-4,5-dimethyl-7,8-dimethoxy-5H-2,3-benzodiazepine]	Decrease of SMA	50 mg/kg	1.3	0.79	90%	–	–	–	–	0.91	218%
COc1cc2c(cc1OC)C(c1cccc(F)c1)=NN=C(C)C2 [Example 41, 1-(3-Fluorphenyl)-4-methyl-7,8-dimethoxy-5H-2,3-benzodiazepine]	Decrease of SMA	37 mg/kg	1.7	1.80	205%	–	–	–	–	1.60	383%
CCC1C(C)=NN=C(c2cccc(F)c2)c2cc(OC)c(OC)cc21 (centres unmarked) [Example 42, 1-(3-Fluorphenyl)-4-methyl-5-ethyl-7,8-dimethoxy-5H-2,3-benzodiazepine]	Decrease of SMA	40 mg/kg	1.6	3.04	347%	2.52	204%	–	–	–	–
COc1cc2c(cc1OC)C(c1ccccc1OC)=NN=C(C)C2 [Example 43, 1-(2-Methoxyphenyl)-4-methyl-7,8-dimethoxy-5H-2,3-benzodiazepine]	Decrease of SMA	36 mg/kg	1.8	–	–	2.89	234%	–	–	–	–
COc1cc2c(cc1OC)C(c1cccc(C(F)(F)F)c1)=NN=C(C)C2 [Example 44, 1-(3-Trifluoromethyl-phenyl)-4-methyl-7,8-dimethoxy-5H-2,3-benzodiazepine]	Strong decrease of SMA	22 mg/kg	2.9	–	–	3.63	294%	8.82	150%	–	–
COc1cc2c(cc1OC)C(c1ccco1)=NN=C(C)C2 [Example 45, 1-(2-Furyl)-4-methyl-7,8-dimethoxy-5H-2,3-benzodiazepine]	Decrease of SMA	50 mg/kg	1.3	–	–	3.09	250%	–	–	–	–
COc1cccc(C2=NN=C(C)Cc3cc(OC)c(OC)cc32)c1 [Example 46, 1-(3-Methoxyphenyl)-4-methyl-7,8-dimethoxy-5H-2,3-benzodiazepine]	Strong decrease of SMA	50 mg/kg	1.3	–	–	3.70	300%	8.24	140%	–	–
